From article PMC12543283, “TastepepAI: An artificial intelligence platform for taste peptide de novo design” (PLOS Computational Biology, 2025)
Ends that are not written are not given here.

How the values were obtained:
[1] = Electronic tongue analysis (Taste-Sensing System SA 402B); design: unit not given here; settings: reference solution 30 mM KCl + 0.3 mM tartaric acid as baseline, first measurement excluded; for Umami: sensor AAE; for Umami / Bitter / Sweet: detection threshold 0, room temperature; for Umami / Bitter / Sour / Salty: four replicates; for Sour: detection threshold -13, room temperature; for Salty: detection threshold -6, room temperature; for Sweet: measured five times
How it was run: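 Samples were tested at 0.1 and 1.0 mg/mL on an SA 402B e-tongue fitted with sourness, saltiness, bitterness, sweetness and umami sensors, with 30 mM KCl/0.3 mM tartaric acid as reference and baseline. Thresholds were −13 for sour, −6 for salty and 0 for the rest. Runs at room temperature: four replicates, five for sweetness, first reading discarded.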

[2] = tested on: human bronchial epithelial cells (BEAS-2B)
[3] = tested on: human embryonic kidney cells (HEK293T)
[4] = tested on: human pancreatic ductal epithelial cells (HPNE)
[5] = tested on: human umbilical vein endothelial cells (HUVEC)
Experimental: The cytotoxicity of 73 synthetic peptides was evaluated using four human cell lines: human pancreatic ductal epithelial cells (HPNE), human embryonic kidney cells (HEK293T), human umbilical vein endothelial cells (HUVEC), and human bronchial epithelial cells (BEAS-2B). When cell density reached 70% confluence, the complete culture medium was replaced with serum-free maintenance medium, and peptides were added at a final concentration of 100 μM for 36 h. Control groups received only serum-free maintenance medium without peptides. Cell proliferation was assessed using the CCK-8 assay kit (Solarbio, CA1210) according to the manufacturer’s instructions.

| Substance | Umami ([1]; peptide 0.1 mg/mL) | Umami ([1]; peptide 1 mg/mL) | Bitter ([1]; sensor C00, peptide 0.1 mg/mL) | Bitter ([1]; sensor C00, peptide 1 mg/mL) | Sour ([1]; sensor CA0, peptide 0.1 mg/mL) | Sour ([1]; sensor CA0, peptide 1 mg/mL) | Salty ([1]; sensor CT0, peptide 0.1 mg/mL) | Salty ([1]; sensor CT0, peptide 1 mg/mL) | Sweet ([1]; sensor GL1, peptide 0.1 mg/mL) | Sweet ([1]; sensor GL1, peptide 1 mg/mL) | Average cell viability, BEAS-2B [2] | Cell viability, BEAS-2B, Data1 [2] | Cell viability, BEAS-2B, Data2 [2] | Cell viability, BEAS-2B, Data3 [2] | Average cell viability, HEK293T [3] | Cell viability, HEK293T, Data1 [3] | Cell viability, HEK293T, Data2 [3] | Cell viability, HEK293T, Data3 [3] | Average cell viability, HPNE [4] | Cell viability, HPNE, Data1 [4] | other results |
| --- | --- | --- | --- | --- | --- | --- | --- | --- | --- | --- | --- | --- | --- | --- | --- | --- | --- | --- | --- | --- | --- |
| HGGDDLG [TaPep28] | 1.08 | -5.39 | 7.58 | 4.00 | -2.05 | 13.70 | -21.08 | 11.23 | 3.25 | -6.08 | 108.84 | 111.86 | 106.08 | 108.57 | 97.67 | 96.62 | 99.75 | 96.62 | 100.10 | 100.63 | Cell viability, HPNE, Data2 [4]: 102.04; Cell viability, HPNE, Data3 [4]: 97.63; Average cell viability, HUVEC [5]: 104.66; Cell viability, HUVEC, Data1 [5]: 105.77; Cell viability, HUVEC, Data2 [5]: 106.73; Cell viability, HUVEC, Data3 [5]: 101.46 |
| HIDELDE [TaPep22] | 2.56 | -3.68 | 6.91 | 3.37 | -5.65 | 9.43 | -22.87 | 7.21 | 7.18 | -4.86 | 111.67 | 106.78 | 113.26 | 114.96 | 98.23 | 106.09 | 94.35 | 94.26 | 95.67 | 103.83 | Cell viability, HPNE, Data2 [4]: 84.66; Cell viability, HPNE, Data3 [4]: 98.54; Average cell viability, HUVEC [5]: 101.94; Cell viability, HUVEC, Data1 [5]: 90.69; Cell viability, HUVEC, Data2 [5]: 106.97; Cell viability, HUVEC, Data3 [5]: 108.17 |
| IAVPHEP [TaPep47] | 2.32 | -4.54 | 8.00 | 3.37 | -4.89 | 10.97 | -19.15 | 9.73 | 6.95 | -5.60 | 106.38 | 109.97 | 99.00 | 110.17 | 100.09 | 104.67 | 100.41 | 95.21 | 99.80 | 107.02 | Cell viability, HPNE, Data2 [4]: 87.25; Cell viability, HPNE, Data3 [4]: 105.12; Average cell viability, HUVEC [5]: 101.12; Cell viability, HUVEC, Data1 [5]: 101.62; Cell viability, HUVEC, Data2 [5]: 112.48; Cell viability, HUVEC, Data3 [5]: 89.25 |
| IFGDD [TaPep57] | 1.71 | -5.02 | 7.29 | 3.08 | -3.54 | 12.57 | -21.64 | 9.94 | 6.75 | -7.93 | 100.86 | 99.70 | 103.89 | 99.00 | 99.72 | 100.22 | 96.06 | 102.87 | 103.13 | 83.76 | Cell viability, HPNE, Data2 [4]: 112.81; Cell viability, HPNE, Data3 [4]: 112.81; Average cell viability, HUVEC [5]: 100.24; Cell viability, HUVEC, Data1 [5]: 106.57; Cell viability, HUVEC, Data2 [5]: 103.38; Cell viability, HUVEC, Data3 [5]: 90.77 |
